This passage reports IC50 results from patent US5952335A, “Fused polycyclic heterocycle derivatives” (Eisai Co., Ltd., priority 1995, dated 1999).

Counter-ions that a name gives are not always drawn.

The subject of the test is P388 cells. In words: in vitro Antitumor Test on P388 Cells (Mouse Leukemic Cells), MTT, 3 days. Format: cell-based. Particulars: 72 h, 3 days incubation. As for the experimental part:
P388 cells suspended in RPMI1640 medium (manufactured by Sanko Junyaku) containing 10% of fetal calf serum, (100 U/ml) of penicillin, 100 μg/ml of streptomycin, 5×10^-5 M of mercaptoethanol and 1 mM of sodium pyruvate were pipetted into a 96-well U-bottomed microplate at a ratio of 1.25×10^3 cells (0.1 ml) per well and incubated in a incubator containing 5% of carbon dioxide at 37° C. for a day. A compound of the present invention was dissolved in dimethyl sulfoxide to give a concentration of 10^-2 M and then diluted with the 10% fetal calf serum-containing RPMI1640 culture medium to give a concentration of 10^-4 or 10^-5 M. By taking this concentration as the maximal level, threefold serial dilution was effected with the use of the 10% fetal calf serum-containing RPMI1640 culture medium. Then these dilutions were added to the P388 incubation plate as described above at a ratio of 0.1 ml per well followed by incubation in an incubator containing 5% of carbon dioxide at 37° C. for 3 days. After the completion of the incubation, 0.05 ml/well of a 3.3 mg/ml solution of MTT [3-(4,5-dimethylthiazol-2-yl)-2,5-diphenyltetrazolium bromide] was added thereto and the incubation was continued for additional 2 hours. The microplate was centrifuged and the supernatant was aspirated off from each well. Then the formazan thus formed was dissolved in 0.1 ml of dimethyl sulfoxide and the absorbance thereof at 540 nm measured with a microplate reader was taken as an indication of the viable cell count. In accordance with the following formula, the inhibitory ratio was calculated and the 50% inhibitory concentration (IC50) of the test compound was determined: [formula] wherein T means the absorbance of a well containing the test compound; and C means the absorbance of a well containing no test compound.
As usually defined, the IC50 is the concentration needed to halve the response being measured. The low end stands for higher potency, the high end for lower potency. The compound `CN(C)CCn1c(=O)c2cccc3c4c5c(ccc4n(c1=O)c23)C(O)CCC5` (single isomer, unassigned; (+)) [Example 6, (+)-5-[2-(Dimethylamino)ethyl]-10-hydroxy-10,11,12,13-tetrahydro-4H-benzo[c]pyrimido[5,6,1-jk]carbazole-4,6(5H)-dione] yielded an IC50 of 1.7 nM. As for `CN(C)CCn1c(=O)c2cccc3c4c5c(ccc4n(c1=O)c23)C(O)CCC5` (stereo not shown) [Example 5, 5-[2-(Dimethylamino)ethyl]-10-hydroxy-10,11,12,13-tetrahydro-4H-benzo[c]pyrimido[5,6,1-jk]carbazole-4,6(5H)-dione], the half-inhibitory concentration (IC50) amounted to 4.8 nM. The compound `CN(C)CCn1c(=O)c2cccc3c4c5c(ccc4n(c1=O)c23)C(O)CO5` (stereo not shown) [Example 9, 2,3-Dihydro-8-[2-(dimethylamino)ethyl]-3-hydroxy-7H-furo[3,2-c]pyrimido[5,6,1-jk]carbazole-7,9(8H)-dione] gave an IC50 of 6.7 nM. The same measure for `CN(C)CCn1c(=O)c2cccc3c4ccc5sccc5c4n(c1=O)c23` [Example 14, 2-[2-(Dimethylamino)ethyl]-1H-pyrimido[5,6,1-jk]thieno[3,2-a]carbazole-1,3(2H)-dione hydrochloride]: 74 nM; for `CN(C)CCn1c(=O)c2cccc3c4c5c(ccc4n(c1=O)c23)C(=O)CCO5` [Example 15, 2,3-Dihydro-9-[2-(dimethylamino)ethyl]-4H,8H-pyrano[3,2-c]pyrimido[5,6,1-jk]carbazole-4,8,10(9H)-trione hydrochloride]: 140 nM. The same measure for `CN(C)CCn1c(=O)c2cccc3c4c5occc(=O)c5ccc4n(c1=O)c23` [Example 16, 9-[2-(Dimethylamino)ethyl]-4H,8H-pyrano[3,2-c]pyrimido [5,6,1-jk]carbazole-4,8,10(9H)-trione hydrochloride]: 110 nM; for `CN(C)CCn1c(=O)c2cccc3c4ccc5occc5c4n(c1=O)c23` [Example 17, 2-[2-(Dimethylamino)ethyl]-1H-furo[3,2-a]pyrimido[5,6,1-jk]carbazole-1,3(2H)-dione hydrochloride]: 34 nM; for `CN(C)CCn1c(=O)c2cccc3c4ccc5ccccc5c4n(c1=O)c23` [Example 18, 2-[2-(Dimethylamino)ethyl]-1H-benzo[a]pyrimido[5,6,1-jk]carbazole-1,3(2H)-dione hydrochloride]: 76 nM. On to `CN(C)CCCn1c(=O)c2cccc3c4c5ccccc5ccc4n(c1=O)c23` [Example 19, 5-[3-(Dimethylamino)propyl]-4H-benzo[c]pyrimido[5,6,1-jk]carbazole-4,6(5H)-dione hydrochloride], for which the midpoint of inhibition, the IC50, lay at 220 nM. Turning to `COc1ccc2c(ccc3c2c2cccc4c(=O)n(CCN(C)C)c(=O)n3c42)c1` [Example 22, 5-[2-(Dimethylamino)ethyl]-11-methoxy-4H-benzo[c]pyrimido [5,6,1-jk]carbazole-4,6(5H)-dione hydrochloride], half-maximal inhibition (IC50) was put at 290 nM. As for `COc1cccc2c1ccc1c2c2cccc3c(=O)n(CCN(C)C)c(=O)n1c32` [Example 23, 5-[2-(Dimethylamino)ethyl]-10-methoxy-4H-benzo[c]pyrimido[5,6,1-jk]carbazole-4,6(5H)-dione hydrochloride], the half-maximal inhibitory concentration (IC50) was 81 nM. With `CN(C)CCn1c(=O)c2c3ccccc3nc3c4ccccc4n(c1=O)c32` [Example 24, 2-[2-(Dimethylamino)ethyl]-1H-benzo[b]pyrimido[1,6,5-lm]-4-azacarbazole-1,3(2H)-dione dihydrochloride], the midpoint of inhibition, the IC50, lay at 320 nM. The same measure for `CN(C)CCn1c(=O)c2cccc3c4c5c(ccc4n(c1=O)c23)C(=O)OCC5` [Example 25, 1,2-Dihydro-9-[2-(dimethylamino)ethyl]-4H,8H-pyrano[3,4-c]pyrimido[5,6,1-jk]carbazole-4,8,10(9H)-trione hydrochloride]: 28 nM; for `CN(C)CCn1c(=O)c2cc([N+](=O)[O-])cc3c2n(c1=O)-c1cc2ccccc2cc1O3` [Example 27, 2-[2-(Dimethylamino)ethyl]-5-nitro-1H-benzo[b]pyrimido [5,6,1-kl]phenoxazine-1,3(2H)-dione hydrochloride]: 490 nM.

Compound `CN(C)CCn1c(=O)c2cc(Cl)cc3c4c5ccccc5ccc4n(c1=O)c23` [Example 28, 2-Chloro-5-[2-(dimethylamino)ethyl]-4H-benzo[c]pyrimido [5,6,1-jk]carbazole-4,6(5H)-dione hydrochloride] yielded an IC50 of 70 nM. `CN(C)CCn1c(=O)c2cccc3c4c5c(=O)[nH]ccc5ccc4n(c1=O)c23` [Example 29, 9-[2-(Dimethylamino)ethyl]-8H-pyrido[4,3-c]pyrimido[5,6,1-jk]carbazole-1,8,10(2H,9H)-trione hydrochloride] showed an IC50 of 71 nM. The same measure for `CN(C)CCn1c(=O)c2cccc3c4c5ccccc5ncc4n(c1=O)c23` [Example 30, 5-[2-(Dimethylamino)ethyl]-4H-quino[4',3'-4,5]pyrrolo [3,2,1-ij]quinazoline-4,6(5H)-dione dihydrochloride]: 32 nM; for `CN(C)CCn1c(=O)c2cc(N)cc3c2n(c1=O)-c1cc2ccccc2cc1O3` [Example 31, 5-Amino-2-[2-(dimethylamino)ethyl]-1H-benzo[b]pyrimido [5,6,1-kl]phenoxazine-1,3(2H)-dione dihydrochloride]: 110 nM; for `COc1cccc2ccc3c(c4cccc5c(=O)n(CCN(C)C)c(=O)n3c54)c12` [Example 32, 5-[2-(Dimethylamino)ethyl]-13-methoxy-4H-benzo[c]pyrimido [5,6,1-jk]carbazole-4,6(5H)-dione hydrochloride]: 410 nM. The value for `CN(C)CCCCn1c(=O)c2cccc3c4c5ccccc5ccc4n(c1=O)c23` [Example 34, 5-[4-(Dimethylamino)butyl]-4H-benzo[c]pyrimido[5,6,1-jk]carbazole-4,6(5H)-dione hydrochloride] was 450 nM; that for `CN(C)CCn1c(=O)c2cccc3c4c5cccnc5ccc4n(c1=O)c23` [Example 36, 9-[2-(Dimethylamino)ethyl]-8H-pyrido[2,3-c]pyrimido[5,6,1-jk]carbazole-8,10(9H)-dione dihydrochloride] was 14 nM; that for `CN(C)CCn1c(=O)c2cc([N+](=O)[O-])cc3c4c5ccccc5ccc4n(c1=O)c23` [Example 37, 5-[2-(Dimethylamino)ethyl]-2-nitro-4H-benzo[c]pyrimido [5,6,1-jk]carbazole-4,6(5H)-dione hydrochloride] was 380 nM. The value for `Cc1cc2c(=O)n(CCN(C)C)c(=O)n3c4ccc5ccccc5c4c(c1)c23` [Example 38, 5-[2-(Dimethylamino)ethyl]-2-methyl-4H-benzo[c]pyrimido [5,6,1-jk]carbazole-4,6(5H)-dione hydrochloride] was 110 nM.

On to `CN(C)CCn1c(=O)c2cccc3c4c5c(ccc4n(c1=O)c23)C(=O)NCC5` [Example 39, 1,2-Dihydro-9-[2-(dimethylamino)ethyl]-8H-pyrido[3,4-c]pyrimido[5,6,1-jk]carbazole-4,8,10(3H,9H)-trione hydrochloride], for which the IC50 was 7.7 nM. Compound `CN(C)CCn1c(=O)c2cccc3c4c5c(ccc4n(c1=O)c23)OCO5` [Example 40, 8-[2-(Dimethylamino)ethyl]-7H-1,3-dioxolo[4,5-c]pyrimido [5,6,1-jk]carbazole-7,9(8H)-dione hydrochloride] yielded an IC50 of 220 nM.
